Each structure is given as a SMILES string. Where “and” joins values, the source holds several entries; their conditions need not be identical. Identical values can stand only once. Like-named read-outs stand apart in the source and are kept apart here.

Data on nine compounds can be found in patent US10813933B2, “Therapeutic agent for lung cancer that has acquired EGFR-TKI resistance” (JAPANESE FOUNDATION FOR CANCER RESEARCH, priority 2016, dated 2020).

In assay [1] the test system is phosphorylation of EGFR and downstream signal transductions in triple-mutant expressing PC9 cell line. Kind of assay: Western blotting of EGFR signal, PC9 triple-mutant. The note with it: FIG. 10C, 10D. The format is cell-based, human. (In western blotting, separated proteins are transferred to a membrane and probed.)
Assay [2] concerns phosphorylation of EGFR and downstream signal transductions in T790M/exon 19 deletion mutant expressing PC9 cell line. Kind of assay: Western blotting of EGFR signal, PC9 T790M. The format is cell-based, human. The note with it: FIG. 10B, 10D.
In assay [3] the target is EGFR L858R mutant expressing Ba/F3 cells (Homo sapiens, UniProt P00533, L858R, cells depend on it). Kind of assay: CellTiter-Glo cell viability, Ba/F3 EGFR mutant. In kind it is cell-based, mouse. The settings on record: read-out: IC50 (nM) L858R. (ATP-based viability assays read luminescence as a measure of living cells.)
Procedure: (§1) Ba/F3 mutation lines were prepared in the same manner as above to determine the cell viabilities by CellTiter-Glo assay.
The subject of assay [4] is EGFR mutant expressing Ba/F3 cells. Kind of assay: Cell viability, ALK inhibitors on Ba/F3 with any of the EGFR mutants (summary statements). The format is cell-based, mouse. The settings on record: FIG. 6A-D, FIG. 7A-D.
Assay [5] addresses EGFR T790M/exon 19 deletion mutant (T790M/del19) expressing Ba/F3 cells (Homo sapiens, UniProt P00533, DEL746-750/T790M, cells depend on it). As to the kind of experiment: CellTiter-Glo cell viability, Ba/F3 EGFR mutant.
In assay [6] the target is EGFR T790M/L858R mutant expressing Ba/F3 cells (Homo sapiens, UniProt P00533, T790M/L858R, cells depend on it). Kind of assay: CellTiter-Glo cell viability, Ba/F3 EGFR mutant. The format is cell-based, mouse. The settings on record: Table 5, ALK inhibitors, read-out: IC50 (nM) T/L.
Procedure: as §1
The target in assay [7] is EGFR exon 19 deletion mutant (del19) expressing Ba/F3 cells (Homo sapiens, UniProt P00533, DEL746-750, cells depend on it). As to the kind of experiment: CellTiter-Glo cell viability, Ba/F3 EGFR mutant.
In assay [8] the test system is phosphorylation of EGFR and downstream signal transductions in parental line PC9. As to the kind of experiment: Western blotting of EGFR signal, PC9. In kind it is cell-based, human. The settings on record: FIG. 10A, 10D.
In assay [9] the test system is EGFR signal transductions in EGFR mutants expressing Ba/F3 cells. Kind of assay: Western blotting of EGFR signal transductions in EGFR mutants expressing Ba/F3 cells (summary statements). In kind it is cell-based, mouse. The note with it: FIG. 8A-D; L858R-based lines, not shown.
The subject of assay [10] is exon 19 deletion mutation. The settings on record: cited from earlier work.
Assay [11] deals with adenocarcinoma. The settings on record: cited from earlier work.
Assay [12] has as its system A431 wherein EGFR is amplified. As to the kind of experiment: Cell growth of wild type EGFR expressing cells. In kind it is cell-based, human. The settings on record: FIG. 11.
Procedure: The analysis was carried out using A431 wherein EGFR is amplified and A549 and H460 which have a mutation at K-ras. A431 is a cell line derived from a human epithelioid cell cancer and A549 and H460 are cell lines derived from human lung cancers. Note that, EGFR has no mutations despite A431 being amplified, and EGFR also has no mutations in A549 and H460.
Assay [13] has as its system phosphorylation of EGFR and downstream signal transductions in T790M/del19 Ba/F3 cells. Kind of assay: Western blotting of EGFR phosphorylation and downstream signal. The format is cell-based, mouse. The settings on record: 10, 100, 1000 nM; FIG. 2E.
The subject of assay [14] is phosphorylation of EGFR and downstream signal transductions in T790M/L858R mutant expressing Ba/F3 cells. Described as above. In kind it is cell-based, mouse. The note with it: FIG. 4B.
For assay [15], the system named is phosphorylation of EGFR and downstream signal transductions in L858R mutant expressing Ba/F3 cells. The description is as above. The format is cell-based, mouse. The settings on record: FIG. 4A.
Assay [16] deals with human lung cancer cell line PC9 (EGFR exon 19 deletion mutant). In kind it is cell-based.
Assay [17] deals with T790M/exon 19 deletion mutant expressing PC9 cell line. In kind it is cell-based, human.
For assay [18], the system named is EGFR T790M/exon19 deletion mutant expressing PC9 cells. Kind of assay: Balb-c nu/nu mice transplanted with EGFR mutant expressing PC9. The format is in vivo, mouse.
Procedure: The tumor volume was measured in the same manner as above.
The results are shown from 2 mice per group.
The subject of assay [19] is Ba/F3 cells expressing the T790M/del19 mutant. Kind of assay: SCID mice transplanted with EGFR mutant expressing Ba/F3. The settings on record: 50 mg/kg osimertinib, 75 mg/kg brigatinib, oral once daily; FIG. 12B.
Where [20] appears, read: read-out: IC50 (nM) T/D, Table 4, ALK inhibitors, T790M/del19.
[21] abbreviates: read-out: IC50 (nM) Del19, Table 4, ALK inhibitors.

Chain of EGFR exon 19 deletion mutant (del19) expressing Ba/F3 cells (P00533 with tags, fused parts or gaps DEL746-750): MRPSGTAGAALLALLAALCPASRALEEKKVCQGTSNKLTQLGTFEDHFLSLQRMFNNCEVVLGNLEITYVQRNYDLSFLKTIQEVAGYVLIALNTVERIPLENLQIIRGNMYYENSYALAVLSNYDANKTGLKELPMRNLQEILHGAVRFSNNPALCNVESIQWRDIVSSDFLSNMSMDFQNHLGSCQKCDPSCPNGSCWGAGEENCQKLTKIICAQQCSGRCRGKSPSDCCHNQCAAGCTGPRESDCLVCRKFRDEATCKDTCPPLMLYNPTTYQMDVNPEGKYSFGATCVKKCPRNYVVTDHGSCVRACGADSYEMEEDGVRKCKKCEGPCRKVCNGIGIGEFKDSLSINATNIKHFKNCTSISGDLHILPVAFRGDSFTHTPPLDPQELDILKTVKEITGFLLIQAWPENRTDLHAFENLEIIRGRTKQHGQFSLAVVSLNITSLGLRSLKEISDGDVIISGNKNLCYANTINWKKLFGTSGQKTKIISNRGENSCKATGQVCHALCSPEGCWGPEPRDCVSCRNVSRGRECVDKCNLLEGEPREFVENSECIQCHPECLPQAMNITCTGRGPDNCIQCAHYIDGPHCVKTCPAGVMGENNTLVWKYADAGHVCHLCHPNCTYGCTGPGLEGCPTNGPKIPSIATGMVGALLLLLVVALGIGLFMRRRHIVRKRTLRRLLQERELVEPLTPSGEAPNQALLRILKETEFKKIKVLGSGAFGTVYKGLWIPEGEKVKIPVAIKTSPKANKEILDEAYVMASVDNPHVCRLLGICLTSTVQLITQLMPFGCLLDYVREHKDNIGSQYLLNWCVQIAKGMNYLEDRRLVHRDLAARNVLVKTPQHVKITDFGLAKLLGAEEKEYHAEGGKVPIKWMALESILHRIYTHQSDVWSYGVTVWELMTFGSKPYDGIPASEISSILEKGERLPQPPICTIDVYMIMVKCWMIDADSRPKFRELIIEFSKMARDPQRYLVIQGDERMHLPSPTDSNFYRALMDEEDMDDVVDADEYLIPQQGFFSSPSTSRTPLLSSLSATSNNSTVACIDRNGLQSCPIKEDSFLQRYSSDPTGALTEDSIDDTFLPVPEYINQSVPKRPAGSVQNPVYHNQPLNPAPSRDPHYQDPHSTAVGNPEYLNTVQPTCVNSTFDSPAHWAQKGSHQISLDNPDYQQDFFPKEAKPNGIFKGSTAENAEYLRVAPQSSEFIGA
Chain of EGFR L858R mutant expressing Ba/F3 cells (P00533 whole entry L858R): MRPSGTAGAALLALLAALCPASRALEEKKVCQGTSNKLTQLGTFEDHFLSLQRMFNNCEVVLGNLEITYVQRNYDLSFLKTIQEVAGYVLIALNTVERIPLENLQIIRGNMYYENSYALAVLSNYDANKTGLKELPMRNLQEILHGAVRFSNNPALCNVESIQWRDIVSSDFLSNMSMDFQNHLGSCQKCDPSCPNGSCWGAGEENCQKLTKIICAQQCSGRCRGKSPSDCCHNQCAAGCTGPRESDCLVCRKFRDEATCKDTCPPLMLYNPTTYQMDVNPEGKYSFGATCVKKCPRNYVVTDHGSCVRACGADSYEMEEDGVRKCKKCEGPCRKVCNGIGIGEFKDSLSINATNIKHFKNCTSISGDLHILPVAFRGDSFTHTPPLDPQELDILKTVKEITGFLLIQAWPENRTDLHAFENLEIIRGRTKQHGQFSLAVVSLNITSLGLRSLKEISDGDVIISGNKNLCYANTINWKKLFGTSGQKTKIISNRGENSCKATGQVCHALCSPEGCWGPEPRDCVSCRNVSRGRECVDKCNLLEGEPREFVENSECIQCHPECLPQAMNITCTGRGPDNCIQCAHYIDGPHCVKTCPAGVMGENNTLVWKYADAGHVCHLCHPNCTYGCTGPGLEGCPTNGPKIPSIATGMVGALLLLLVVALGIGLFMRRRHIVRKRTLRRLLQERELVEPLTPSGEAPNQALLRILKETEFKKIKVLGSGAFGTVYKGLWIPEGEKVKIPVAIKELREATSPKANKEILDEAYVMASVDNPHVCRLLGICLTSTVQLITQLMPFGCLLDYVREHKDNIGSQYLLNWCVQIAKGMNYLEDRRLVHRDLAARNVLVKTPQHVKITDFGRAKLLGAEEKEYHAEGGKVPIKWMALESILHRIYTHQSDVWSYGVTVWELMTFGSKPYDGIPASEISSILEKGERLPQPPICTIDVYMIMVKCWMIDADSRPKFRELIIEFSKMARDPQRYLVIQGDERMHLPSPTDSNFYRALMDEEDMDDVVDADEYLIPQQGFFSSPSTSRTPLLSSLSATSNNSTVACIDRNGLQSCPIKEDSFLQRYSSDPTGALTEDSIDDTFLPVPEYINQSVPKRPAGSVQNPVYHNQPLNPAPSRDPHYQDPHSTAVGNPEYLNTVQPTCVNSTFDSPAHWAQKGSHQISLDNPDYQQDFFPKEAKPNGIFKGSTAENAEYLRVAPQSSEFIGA
Chain of EGFR T790M/exon 19 deletion mutant (T790M/del19) expressing Ba/F3 cells (P00533 with tags, fused parts or gaps DEL746-750/T790M): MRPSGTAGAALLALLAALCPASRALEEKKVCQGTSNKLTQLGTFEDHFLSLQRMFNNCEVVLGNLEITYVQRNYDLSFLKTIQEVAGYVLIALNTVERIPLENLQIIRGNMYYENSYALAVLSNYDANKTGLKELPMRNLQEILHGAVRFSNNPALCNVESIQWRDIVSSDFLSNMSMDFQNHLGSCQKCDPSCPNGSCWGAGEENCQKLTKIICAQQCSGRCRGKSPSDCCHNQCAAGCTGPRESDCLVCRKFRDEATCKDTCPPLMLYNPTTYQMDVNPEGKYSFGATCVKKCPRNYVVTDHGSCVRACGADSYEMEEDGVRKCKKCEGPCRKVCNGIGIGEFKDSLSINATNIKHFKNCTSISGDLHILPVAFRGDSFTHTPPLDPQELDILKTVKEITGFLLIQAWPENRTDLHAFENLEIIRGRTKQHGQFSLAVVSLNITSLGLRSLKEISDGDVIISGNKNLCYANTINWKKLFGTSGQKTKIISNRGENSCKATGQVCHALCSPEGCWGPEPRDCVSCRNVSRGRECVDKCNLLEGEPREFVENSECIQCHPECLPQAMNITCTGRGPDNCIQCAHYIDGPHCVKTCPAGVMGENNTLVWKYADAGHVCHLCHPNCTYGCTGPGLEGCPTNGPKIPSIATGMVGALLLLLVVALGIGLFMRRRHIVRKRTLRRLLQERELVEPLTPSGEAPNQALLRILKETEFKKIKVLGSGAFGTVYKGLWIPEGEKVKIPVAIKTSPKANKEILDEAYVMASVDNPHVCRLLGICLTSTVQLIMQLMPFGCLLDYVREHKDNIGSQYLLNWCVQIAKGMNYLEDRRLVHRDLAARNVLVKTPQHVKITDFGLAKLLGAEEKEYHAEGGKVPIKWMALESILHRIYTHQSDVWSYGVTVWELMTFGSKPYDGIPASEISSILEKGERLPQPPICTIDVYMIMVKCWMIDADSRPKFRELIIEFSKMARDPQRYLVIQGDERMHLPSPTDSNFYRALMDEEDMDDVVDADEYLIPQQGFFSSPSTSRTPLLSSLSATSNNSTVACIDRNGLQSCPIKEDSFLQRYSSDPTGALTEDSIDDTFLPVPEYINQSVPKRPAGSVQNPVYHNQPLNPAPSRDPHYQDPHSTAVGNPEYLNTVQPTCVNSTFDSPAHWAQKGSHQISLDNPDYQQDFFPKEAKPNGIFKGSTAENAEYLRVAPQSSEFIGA
Chain of EGFR T790M/L858R mutant expressing Ba/F3 cells (P00533 whole entry T790M/L858R): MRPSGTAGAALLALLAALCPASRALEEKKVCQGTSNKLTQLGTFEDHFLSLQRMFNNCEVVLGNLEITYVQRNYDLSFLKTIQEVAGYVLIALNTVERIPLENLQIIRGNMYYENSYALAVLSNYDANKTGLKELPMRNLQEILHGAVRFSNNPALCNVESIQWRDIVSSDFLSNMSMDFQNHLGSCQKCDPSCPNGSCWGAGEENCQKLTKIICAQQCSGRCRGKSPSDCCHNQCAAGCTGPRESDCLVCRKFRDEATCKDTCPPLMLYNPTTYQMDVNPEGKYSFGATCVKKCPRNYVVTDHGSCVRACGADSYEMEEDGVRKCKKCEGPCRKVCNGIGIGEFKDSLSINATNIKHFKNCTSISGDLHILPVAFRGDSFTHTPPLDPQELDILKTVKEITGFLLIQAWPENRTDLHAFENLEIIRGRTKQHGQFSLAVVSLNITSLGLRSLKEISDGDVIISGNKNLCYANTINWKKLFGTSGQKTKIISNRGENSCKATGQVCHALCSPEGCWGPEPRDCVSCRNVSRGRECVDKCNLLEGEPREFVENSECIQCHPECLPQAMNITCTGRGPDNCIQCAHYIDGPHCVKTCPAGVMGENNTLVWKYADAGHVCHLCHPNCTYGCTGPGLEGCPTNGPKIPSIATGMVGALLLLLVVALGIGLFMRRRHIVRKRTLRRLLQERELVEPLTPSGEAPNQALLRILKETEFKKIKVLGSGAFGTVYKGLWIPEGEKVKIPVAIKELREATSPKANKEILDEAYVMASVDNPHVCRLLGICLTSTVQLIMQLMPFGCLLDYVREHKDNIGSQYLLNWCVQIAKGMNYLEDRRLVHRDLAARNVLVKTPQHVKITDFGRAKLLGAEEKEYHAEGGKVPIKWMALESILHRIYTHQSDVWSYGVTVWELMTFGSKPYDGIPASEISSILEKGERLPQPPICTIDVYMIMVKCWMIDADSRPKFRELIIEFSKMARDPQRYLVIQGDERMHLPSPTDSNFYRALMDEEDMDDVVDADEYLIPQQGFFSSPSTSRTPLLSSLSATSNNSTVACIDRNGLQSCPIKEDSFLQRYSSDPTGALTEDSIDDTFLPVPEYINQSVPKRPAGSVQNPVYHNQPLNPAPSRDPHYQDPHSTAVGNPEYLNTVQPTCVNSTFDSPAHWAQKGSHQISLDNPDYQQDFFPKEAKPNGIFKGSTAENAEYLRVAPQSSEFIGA

For the compound `COc1cc(N2CCC(N(C)C)CC2)ccc1Nc1ncc(Cl)c(Nc2ccccc2P(C)(C)=O)n1` [AP26113-analogue, AP26113-analog], the “suppression of phosphorylation of EGFR and downstream signal (in words)” value (shortened to “suppression of phosphorylation … (in words)”) in assay [1] is “demonstrated the suppression effects on the phosphorylation of EGFR”; in assay [2] it was “equal suppression effect to brigatinib”; in assay [8] it was “the effect was weaker compared to afatinib”. In addition, the GI50 in assay [3] (Table 5, ALK inhibitors) was 92.1 nM; in assay [5] (setting [20]), 139 nM; in [6], 36 nM; in assay [7] (setting [21]), 36.9 nM. Further, in [4], the “cell growth suppression effect on Ba/F3 with EGFR mutant having any of the mutations (in words)” value (“cell growth suppression effect on Ba/F3” for short) is reported as “strong cell growth suppression effects”. Also, in [9], the “inhibitory activity against the EGFR signal transductions (in words)” value (from here on “inhibitory activity”) was “demonstrated the inhibitory activity against the EGFR signal transductions”.
With `COc1cc(N2CCC(N3CCN(C)CC3)CC2)ccc1Nc1ncnc(Nc2ccccc2S(=O)(=O)C(C)C)n1` [ASP3026], the GI50 is 948 nM in [3] (Table 5, ALK inhibitors); 2170 nM in assay [5] (setting [20]); 1690 nM in [6]; 450 nM in assay [7] (setting [21]). Also, the “cell growth suppression effect on Ba/F3” value in [4] is “did not substantially demonstrate the cell growth suppression effect”. In addition, in assay [9], the “inhibitory activity” value is “did not substantially demonstrate the inhibitory effect on the EGFR signal transductions even when treated at a high concentration of 1 μM”.
Turning to `COc1cc(N2CCC(N)CC2)ccc1Nc1ncc(Cl)c(-c2c[nH]c3ccccc23)n1` [AZD3463], the “suppression of phosphorylation … (in words)” value in [1] is on record as “had the effect of suppressing the phosphorylation of the EGFR signal transductions”; in [2] it was “confirmed to have the effect of suppressing the phosphorylation of EGFR”; in [8], “confirmed to have the effect of suppressing the phosphorylation of EGFR”. The GI50 came out at 287 nM in [3] (Table 5, ALK inhibitors); 175 nM in [5] (setting [20]); 184 nM in assay [6]; 90 nM in [7] (setting [21]). In assay [4], the “cell growth suppression effect on Ba/F3” value is recorded as “strong cell growth suppression effects”.
As to `O=C(Nc1nccs1)C(c1cc(F)ccc1O)N1Cc2ccccc2C1=O` (centres unmarked) [EAI045], in assay [10], the “effectiveness on the exon 19 deletion mutation (in words)” value was “not effective on the exon 19 deletion mutation”.
On to `COc1cc(N2CCC(N3CCN(C)CC3)CC2)ccc1Nc1ncc(Cl)c(Nc2ccccc2S(=O)(=O)C(C)C)n1` [TAE684], for which the “cell growth suppression effect on Ba/F3” value in assay [4] is “did not substantially demonstrate the cell growth suppression effect”. In assay [9], the “inhibitory activity” value is reported as “did not substantially demonstrate the inhibitory effect on the EGFR signal transductions even when treated at a high concentration of 1 μM”.
Regarding `COc1cc(N2CCC(N3CCN(C)CC3)CC2)ccc1Nc1ncc(Cl)c(Nc2ccccc2P(C)(C)=O)n1` [brigatinib], the GI50 was 207 nM and 133 nM in [3] (egfr l858r mutant expressing ba/f3 cells); 150 nM in [5] (read-out: IC50 (nM) T790M/del19, egfr t790m/exon 19 deletion mutant (t790m/del19) expressing ba/f3 cells); 150 nM in assay [5] (read-out: IC50 (nM) T/D, egfr t790m/exon 19 deletion mutant (t790m/del19) expressing ba/f3 cells); 43.7 nM in [7] (read-out: IC50 (nM) Del19, egfr exon 19 deletion mutant (del19) expressing ba/f3 cells); 43.7 nM in [7] (read-out: IC50 (nM) del19, egfr exon 19 deletion mutant (del19) expressing ba/f3 cells).
In the case of `Cc1cc(Nc2ncc(Cl)c(Nc3ccccc3S(=O)(=O)C(C)C)n2)c(OC(C)C)cc1C1CCNCC1` [ceritinib], the GI50 came out at 1160 nM in [3] (Table 5, ALK inhibitors); 685 nM in assay [6]; 524 nM in assay [7] (setting [21]). Moreover, in assay [4], the “cell growth suppression effect on Ba/F3” value is reported as “did not substantially demonstrate the cell growth suppression effect”. Further, in assay [9], the “inhibitory activity” value is given as “did not substantially demonstrate the inhibitory effect on the EGFR signal transductions even when treated at a high concentration of 1 μM”.
On to `COc1cc2ncnc(Nc3ccc(F)c(Cl)c3)c2cc1OCCCN1CCOCC1` [gefitinib], for which the “PFS (progression-free survival)” value in [11] (EGFR gene mutation-positive group) is 9.5 months; in assay [11] (mutation negative group), 1.5 months.
As to `C=CC(=O)Nc1cc(Nc2nccc(-c3cn(C)c4ccccc34)n2)c(OC)cc1N(C)CCN(C)C` [osimertinib], the “cell growth suppression (in words)” value in assay [12] is “suppress the cell growth”. Further, the “suppression of phosphorylation … (in words)” value is recorded as “neither of afatinib, osimertinib, or gefitinib demonstrated the suppression effect” in [1]; “demonstrated the effects of suppressing the phosphorylation” in [2]; “strongly suppressed the phosphorylation of EGFR” in assay [13]; “strongest suppression effect” in assay [14]; “suppression effect, despite being weaker than afatinib” in [15]; “also very strongly suppressed the phosphorylation” in [8]. For the same compound, the “cell growth suppression effect (in words)” value is recorded as “demonstrated the cell growth suppression effects” in assay [16] and “extremely strong cell growth suppression effect” in [17]. Also, the “effect on the tumor growth (tumor volume, in words)” value in [18] (50 mg/kg osimertinib, 75 mg/kg brigatinib, oral once daily, FIG. 13A) is listed as “notable effect on the tumor growth”. Further, the “survival (Kaplan-Meier, in words)” value in assay [18] (FIG. 13B) is recorded as “alive during the observation period”. In addition, the “tumor growth suppression effect (tumor volume, in words)” value in assay [19] is listed as “had the effect”.
